Laboratory results published in ChEMBL document CHEMBL4145553, “Design, synthesis, and biological evaluation of novel amide and hydrazide based thioether analogs targeting Histone deacteylase (HDAC) enzymes” (Eur J Med Chem, 2018).
Active and inactive are the calls of the source. No cut-off for these calls is given here.

Tests used:
[1] = tested on: CCRF-CEM; test: Growth inhibition of human CCRF-CEM cells assessed as cell growth at 10^-8 M incubated for 48 hrs by sulforhodamine B assay relative to control; assay type: functional; conditions: read-out: Activity
[2] = tested on: SNB-19; test: Growth inhibition of human SNB19 cells assessed as cell growth at 10^-8 M incubated for 48 hrs by sulforhodamine B assay relative to control; assay type: functional; conditions: SNB-19, 48 h, read-out: Activity
[3] = tested on: LOX IMVI; test: Growth inhibition of human LOXIMVI cells assessed as cell growth at 10^-8 M incubated for 48 hrs by sulforhodamine B assay relative to control; assay type: functional; conditions: read-out: Activity
[4] = tested on: OVCAR-8; test: Growth inhibition of human OVCAR8 cells assessed as cell growth at 10^-8 M incubated for 48 hrs by sulforhodamine B assay relative to control; assay type: functional; conditions: OVCAR-8, 48 h, read-out: Activity
[5] = tested on: SN12C; test: Growth inhibition of human SN12C cells assessed as cell growth at 10^-8 M incubated for 48 hrs by sulforhodamine B assay relative to control; assay type: functional; conditions: read-out: Activity
[6] = tested on: BT-549; test: Growth inhibition of human BT549 cells assessed as cell growth at 10^-8 M incubated for 48 hrs by sulforhodamine B assay relative to control; assay type: functional; conditions: BT-549, 48 h, read-out: Activity
[7] = tested on: SF-295; test: Growth inhibition of human SF295 cells assessed as cell growth at 10^-7 M incubated for 48 hrs by sulforhodamine B assay relative to control; assay type: functional; conditions: SF-295, 48 h, read-out: Activity
[8] = tested on: SF-539; test: Growth inhibition of human SF539 cells assessed as cell growth at 10^-7 M incubated for 48 hrs by sulforhodamine B assay relative to control; assay type: functional; conditions: SF-539, 48 h, read-out: Activity
[9] = tested on: IGROV-1; test: Growth inhibition of human IGROV1 cells assessed as cell growth at 10^-7 M incubated for 48 hrs by sulforhodamine B assay relative to control; assay type: functional; conditions: IGROV-1, 48 h, read-out: Activity
[10] = tested on: OVCAR-8; test: Growth inhibition of human OVCAR8 cells assessed as cell growth at 10^-7 M incubated for 48 hrs by sulforhodamine B assay relative to control; assay type: functional; conditions: OVCAR-8, 48 h, read-out: Activity
[11] = tested on: T47D; test: Growth inhibition of human T47D cells assessed as cell growth at 10^-7 M incubated for 48 hrs by sulforhodamine B assay relative to control; assay type: functional; conditions: read-out: Activity
[12] = tested on: EKVX; test: Growth inhibition of human EKVX cells assessed as cell growth at 10^-6 M incubated for 48 hrs by sulforhodamine B assay relative to control; assay type: functional; conditions: read-out: Activity
[13] = tested on: NCI-H322M; test: Growth inhibition of human NCI-H322M cells assessed as cell growth at 10^-6 M incubated for 48 hrs by sulforhodamine B assay relative to control; assay type: functional; conditions: read-out: Activity
[14] = tested on: SF-268; test: Growth inhibition of human SF268 cells assessed as cell growth at 10^-6 M incubated for 48 hrs by sulforhodamine B assay relative to control; assay type: functional; conditions: SF-268, 48 h, read-out: Activity
[15] = tested on: SF-295; test: Growth inhibition of human SF295 cells assessed as cell growth at 10^-6 M incubated for 48 hrs by sulforhodamine B assay relative to control; assay type: functional; conditions: SF-295, 48 h, read-out: Activity
[16] = tested on: SK-MEL-2; test: Growth inhibition of human SK-MEL-2 cells assessed as cell growth at 10^-6 M incubated for 48 hrs by sulforhodamine B assay relative to control; assay type: functional; conditions: SK-MEL-2, 48 h, read-out: Activity
[17] = tested on: NCI/ADR-RES; test: Growth inhibition of human NCI/ADR-RES cells assessed as cell growth at 10^-6 M incubated for 48 hrs by sulforhodamine B assay relative to control; assay type: functional; conditions: read-out: Activity
[18] = tested on: A549; test: Growth inhibition of human A549/ATCC cells assessed as cell growth at 10^-5 M incubated for 48 hrs by sulforhodamine B assay relative to control; assay type: functional; conditions: A549, 48 h, read-out: Activity
[19] = tested on: SK-MEL-2; test: Growth inhibition of human SK-MEL-2 cells assessed as cell growth at 10^-5 M incubated for 48 hrs by sulforhodamine B assay relative to control; assay type: functional; conditions: SK-MEL-2, 48 h, read-out: Activity
[20] = tested on: SK-OV-3; test: Growth inhibition of human SKOV3 cells assessed as cell growth at 10^-5 M incubated for 48 hrs by sulforhodamine B assay relative to control; assay type: functional; conditions: SK-OV-3, 48 h, read-out: Activity
[21] = tested on: HL-60(TB); test: Growth inhibition of human HL-60(TB) cells assessed as cell growth at 10^-4 M incubated for 48 hrs by sulforhodamine B assay relative to control; assay type: functional; conditions: HL-60, 48 h, read-out: Activity
[22] = tested on: K562; test: Growth inhibition of human K562 cells assessed as cell growth at 10^-4 M incubated for 48 hrs by sulforhodamine B assay relative to control; assay type: functional; conditions: K562, 48 h, read-out: Activity
[23] = tested on: NCI-H322M; test: Growth inhibition of human NCI-H322M cells assessed as cell growth at 10^-4 M incubated for 48 hrs by sulforhodamine B assay relative to control; assay type: functional; conditions: read-out: Activity
[24] = tested on: SF-539; test: Growth inhibition of human SF539 cells assessed as cell growth at 10^-4 M incubated for 48 hrs by sulforhodamine B assay relative to control; assay type: functional; conditions: SF-539, 48 h, read-out: Activity
[25] = tested on: SK-OV-3; test: Growth inhibition of human SKOV3 cells assessed as cell growth at 10^-4 M incubated for 48 hrs by sulforhodamine B assay relative to control; assay type: functional; conditions: SK-OV-3, 48 h, read-out: Activity
[26] = tested on: UO-31; test: Growth inhibition of human UO31 cells assessed as cell growth at 10^-4 M incubated for 48 hrs by sulforhodamine B assay relative to control; assay type: functional; conditions: UO-31, 48 h, read-out: Activity
[27] = tested on: RPMI-8226; test: Growth inhibition of human RPMI8226 cells incubated for 48 hrs by sulforhodamine B assay; assay type: functional; conditions: RPMI-8226, 48 h
[28] = tested on: NCI-H23; test: Growth inhibition of human NCI-H23 cells incubated for 48 hrs by sulforhodamine B assay; assay type: functional; conditions: NCI-H23, 48 h
[29] = tested on: SF-539; test: Growth inhibition of human SF539 cells incubated for 48 hrs by sulforhodamine B assay; assay type: functional; conditions: SF-539, 48 h
[30] = tested on: SK-OV-3; test: Growth inhibition of human SKOV3 cells incubated for 48 hrs by sulforhodamine B assay; assay type: functional; conditions: SK-OV-3, 48 h
[31] = tested on: HL-60; test: Downregulation of HDAC3 mRNA expression in human HL60 cells by qRT-PCR method; assay type: functional, cell-based
[32] = tested on: MDA-MB-435; test: Downregulation of HDAC8 mRNA expression in human MDA-MB-435 cells by qRT-PCR method; assay type: functional, cell-based
[33] = read-out: LC50 (the source's name)
[34] = read-out: pLC50 (the source's name) (converted)

## CCS/C(Nc1ccccc1)=C(\C#N)C(=O)N/N=C\c1ccc(Cl)cc1Cl
[1]
  growth at 0.01 µM: 103%
[2]
  growth at 0.01 µM: 97%
[3]
  growth at 0.01 µM: 95%
[4]
  growth at 0.01 µM: 94%
[5]
  growth at 0.01 µM: 97%
[6]
  growth at 0.01 µM: 98%
[7]
  growth at 0.1 µM: 88%
[8]
  growth at 0.1 µM: 94%
[9]
  growth at 0.1 µM: 98%
[10]
  growth at 0.1 µM: 96%
[11]
  growth at 0.1 µM: 95%
[12]
  growth at 1 µM: 87%
[13]
  growth at 1 µM: 89%
[14]
  growth at 1 µM: 87%
[15]
  growth at 1 µM: 80%
[16]
  growth at 1 µM: 86%
[17]
  growth at 1 µM: 87%
[18]
  growth at 10 µM: 29%
[19]
  growth at 10 µM: 16%
[20]
  growth at 10 µM: 19%
[21]
  growth at 100 µM: 5%
[22]
  growth at 100 µM: 7%
[23]
  growth at 100 µM: 32%
[24]
  growth at 100 µM: -6%
[25]
  growth at 100 µM: 12%
[26]
  growth at 100 µM: 41%
[27]; read-out: GI50
  GI50: 3.68 µM
[27]; [33]
  CC50: > 100 µM
[27]; read-out: TGI
  TGI: > 100 µM
[27]; read-out: pGI50 (converted)
  GI50: 3.72 µM
[27]; [34]
  CC50: > 100 µM
[27]; read-out: pTGI
  TGI: > 100 µM
[28]; read-out: GI50
  GI50: 6.47 µM
[28]; read-out: LC50
  LC50: > 100 µM
[28]; read-out: TGI
  TGI: > 100 µM
[28]; read-out: pGI50 (converted)
  GI50: 6.46 µM
[28]; read-out: pLC50 (converted)
  LC50: > 100 µM
[28]; read-out: pTGI
  TGI: > 100 µM
[29]; read-out: GI50
  GI50: 2890 nM
[29]; [33]
  CC50: > 100 µM
[29]; read-out: TGI
  TGI: 20.6 µM
[29]; read-out: pGI50 (converted)
  GI50: 2880 nM
[29]; [34]
  CC50: > 100 µM
[29]; read-out: pTGI (converted)
  TGI: 20.4 µM
[30]; read-out: GI50
  GI50: 3.72 µM
[30]; [33]
  CC50: > 100 µM
[30]; read-out: TGI
  TGI: > 100 µM
[30]; read-out: pGI50 (converted)
  GI50: 3.72 µM
[30]; [34]
  CC50: > 100 µM
[30]; read-out: pTGI (converted)
  TGI: > 100 µM
[31]
  Activity: Active
[32]
  Activity: Active

## CCS/C(Nc1ccccc1)=C(\C#N)C(=O)Nc1ccc(OC)cc1
[1]
  growth at 0.01 µM: 91%
[2]
  growth at 0.01 µM: 98%
[3]
  growth at 0.01 µM: 100%
[4]
  growth at 0.01 µM: 100%
[5]
  growth at 0.01 µM: 97%
[6]
  growth at 0.01 µM: 98%
[7]
  growth at 0.1 µM: 90%
[8]
  growth at 0.1 µM: 92%
[9]
  growth at 0.1 µM: 101%
[10]
  growth at 0.1 µM: 99%
[11]
  growth at 0.1 µM: 89%
[12]
  growth at 1 µM: 84%
[13]
  growth at 1 µM: 89%
[14]
  growth at 1 µM: 90%
[15]
  growth at 1 µM: 82%
[16]
  growth at 1 µM: 86%
[17]
  growth at 1 µM: 73%
[18]
  growth at 10 µM: 35%
[19]
  growth at 10 µM: 11%
[20]
  growth at 10 µM: 10%
[21]
  growth at 100 µM: 2%
[22]
  growth at 100 µM: 10%
[23]
  growth at 100 µM: 37%
[24]
  growth at 100 µM: -54%
[25]
  growth at 100 µM: -4%
[26]
  growth at 100 µM: 16%
[27]; read-out: GI50
  GI50: 2.52 µM
[27]; [33]
  CC50: > 100 µM
[27]; read-out: TGI
  TGI: > 100 µM
[27]; read-out: pGI50 (converted)
  GI50: 2.51 µM
[27]; [34]
  CC50: > 100 µM
[27]; read-out: pTGI
  TGI: > 100 µM
[28]; read-out: GI50
  GI50: 4.9 µM
[28]; read-out: LC50
  LC50: > 100 µM
[28]; read-out: TGI
  TGI: > 100 µM
[28]; read-out: pGI50 (converted)
  GI50: 4.9 µM
[28]; read-out: pLC50 (converted)
  LC50: > 100 µM
[28]; read-out: pTGI
  TGI: > 100 µM
[29]; read-out: GI50
  GI50: 1960 nM
[29]; [33]
  CC50: 52.9 µM
[29]; read-out: TGI
  TGI: 4.81 µM
[29]; read-out: pGI50 (converted)
  GI50: 1950 nM
[29]; [34]
  CC50: 52.5 µM
[29]; read-out: pTGI (converted)
  TGI: 4.79 µM
[30]; read-out: GI50
  GI50: 3.28 µM
[30]; [33]
  CC50: > 100 µM
[30]; read-out: TGI
  TGI: 50.2 µM
[30]; read-out: pGI50 (converted)
  GI50: 3.31 µM
[30]; [34]
  CC50: > 100 µM
[30]; read-out: pTGI (converted)
  TGI: 50.1 µM
[31]
  Activity: Active
[32]
  Activity: Active
